From ChEMBL document CHEMBL1811912, “Human HDAC isoform selectivity achieved via exploitation of the acetate release channel with structurally unique small molecule inhibitors” (Bioorg Med Chem, 2011)

Columns and labels:
[1] = target: T1, Protein deacetylase HDAC6 (Homo sapiens, UniProt Q9UBN7); assay: Inhibition of human HDAC6 using rhodamine as substrate after 1 hrs by fluorescence assay
T1 sequence (Q9UBN7 whole entry): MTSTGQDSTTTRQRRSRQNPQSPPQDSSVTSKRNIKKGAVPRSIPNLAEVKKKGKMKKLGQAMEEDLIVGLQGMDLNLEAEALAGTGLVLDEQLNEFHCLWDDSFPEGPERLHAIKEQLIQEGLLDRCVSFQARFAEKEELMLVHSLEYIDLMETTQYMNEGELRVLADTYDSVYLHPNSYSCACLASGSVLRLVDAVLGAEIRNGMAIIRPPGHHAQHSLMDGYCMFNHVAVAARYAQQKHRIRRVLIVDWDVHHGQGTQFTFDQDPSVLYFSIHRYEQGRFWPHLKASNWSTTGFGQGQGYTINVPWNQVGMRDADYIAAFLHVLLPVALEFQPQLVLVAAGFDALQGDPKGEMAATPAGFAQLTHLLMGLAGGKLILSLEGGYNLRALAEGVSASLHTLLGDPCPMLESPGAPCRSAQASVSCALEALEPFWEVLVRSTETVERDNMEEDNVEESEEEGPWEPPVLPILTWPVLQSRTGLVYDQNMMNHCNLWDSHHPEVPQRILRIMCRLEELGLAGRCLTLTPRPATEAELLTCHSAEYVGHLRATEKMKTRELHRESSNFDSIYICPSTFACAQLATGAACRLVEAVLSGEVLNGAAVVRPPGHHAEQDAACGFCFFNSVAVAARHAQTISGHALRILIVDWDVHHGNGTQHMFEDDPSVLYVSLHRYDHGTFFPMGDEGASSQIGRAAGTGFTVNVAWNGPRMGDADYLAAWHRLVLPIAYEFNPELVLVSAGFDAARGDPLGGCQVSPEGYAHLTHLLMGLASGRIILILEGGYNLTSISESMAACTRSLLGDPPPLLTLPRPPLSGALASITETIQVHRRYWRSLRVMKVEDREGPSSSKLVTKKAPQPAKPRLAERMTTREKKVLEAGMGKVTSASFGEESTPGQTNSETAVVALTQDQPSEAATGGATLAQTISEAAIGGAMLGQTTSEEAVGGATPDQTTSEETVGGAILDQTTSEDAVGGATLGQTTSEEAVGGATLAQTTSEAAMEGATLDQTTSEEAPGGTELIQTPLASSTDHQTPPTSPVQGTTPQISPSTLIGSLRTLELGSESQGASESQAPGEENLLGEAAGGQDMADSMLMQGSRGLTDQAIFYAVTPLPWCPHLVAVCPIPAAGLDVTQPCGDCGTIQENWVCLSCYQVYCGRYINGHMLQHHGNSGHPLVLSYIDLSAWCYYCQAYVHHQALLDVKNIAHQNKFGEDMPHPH

Histone deacetylase 2 = Histone deacetylase 2 (Homo sapiens, UniProt Q92769); assay: Inhibition of human HDAC2 using rhodamine as substrate after 1 hrs by fluorescence assay
Histone deacetylase 1 = Histone deacetylase 1 (Homo sapiens, UniProt Q13547); assay: Inhibition of human HDAC1 using rhodamine as substrate after 1 hrs by fluorescence assay
Sequence of Histone deacetylase 1 (Q13547 whole entry): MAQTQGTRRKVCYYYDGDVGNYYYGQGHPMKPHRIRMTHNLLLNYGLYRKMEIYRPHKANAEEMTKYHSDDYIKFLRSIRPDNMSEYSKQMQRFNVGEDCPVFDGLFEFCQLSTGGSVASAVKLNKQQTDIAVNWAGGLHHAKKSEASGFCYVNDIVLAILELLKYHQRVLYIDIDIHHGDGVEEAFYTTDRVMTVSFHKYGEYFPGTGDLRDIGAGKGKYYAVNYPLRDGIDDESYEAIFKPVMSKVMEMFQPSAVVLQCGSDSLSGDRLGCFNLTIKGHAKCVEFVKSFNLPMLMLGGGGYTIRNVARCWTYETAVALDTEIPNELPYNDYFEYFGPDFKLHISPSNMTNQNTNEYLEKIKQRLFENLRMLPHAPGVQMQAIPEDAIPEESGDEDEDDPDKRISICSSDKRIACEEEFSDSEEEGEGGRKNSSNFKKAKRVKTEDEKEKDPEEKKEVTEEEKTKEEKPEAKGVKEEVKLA

Sequence of Histone deacetylase 2 (Q92769 whole entry): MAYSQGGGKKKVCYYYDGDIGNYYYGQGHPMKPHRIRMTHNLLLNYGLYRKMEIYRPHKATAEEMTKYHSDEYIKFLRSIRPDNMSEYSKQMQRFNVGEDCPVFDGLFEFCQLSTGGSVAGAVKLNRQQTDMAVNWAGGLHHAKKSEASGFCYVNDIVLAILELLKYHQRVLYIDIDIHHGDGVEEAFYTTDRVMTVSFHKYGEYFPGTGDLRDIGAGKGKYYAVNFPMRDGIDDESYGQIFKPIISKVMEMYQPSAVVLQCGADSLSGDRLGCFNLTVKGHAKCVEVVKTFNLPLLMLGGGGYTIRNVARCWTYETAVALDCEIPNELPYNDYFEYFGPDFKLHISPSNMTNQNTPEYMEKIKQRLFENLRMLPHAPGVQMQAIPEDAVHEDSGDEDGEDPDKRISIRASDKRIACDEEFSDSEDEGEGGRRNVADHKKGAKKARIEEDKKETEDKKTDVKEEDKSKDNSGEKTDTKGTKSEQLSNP

Structure (SMILES)	IC50 [1]	IC50 (Histone deacetylase 2)	IC50 (Histone deacetylase 1)
N[C@H](Cc1cccc(Cl)c1)C(=O)N1CCN(C(=O)c2cc(F)ccc2F)CC1	> 30 µM	> 30 µM	> 30 µM
N[C@H](Cc1ccc(Cl)cc1Cl)C(=O)N1Cc2ccccc2C1	> 30 µM	3.9 µM	–
